Results reported in patent US10112937B2, “P2X7 modulators and methods of use” (Janssen Pharmaceutica NV, priority 2013, dated 2018).
Each block holds one molecule with its values, some of them ahead of it.

Key:
human P2X7 = human P2X7 (Homo sapiens (Human), UniProt Q99572); test: P2X7 antagonism in human PBMCs (IL-1β release after LPS + Bz-ATP, ELISA); type: cell-based
rat P2X7 = rat P2X7 (Rattus norvegicus (Rat), UniProt Q64663); test: Ca2+ flux (FLIPR) in 1321N1 cells expressing recombinant rat P2X7; type: cell-based;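 note: Calcium-4 dye fluorescence change read 180 s after agonist addition, with cells preincubated 30 min with compound and dye in 96-well plates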
[1] = human PBMCs, test compound 10 μM
[2] = 1321N1 cells, recombinant rat P2X7, 250 μM BzATP
[3] = 10 μM test compound, human PBMCs, LPS + Bz-ATP

human P2X7, sequence (Q99572 whole entry): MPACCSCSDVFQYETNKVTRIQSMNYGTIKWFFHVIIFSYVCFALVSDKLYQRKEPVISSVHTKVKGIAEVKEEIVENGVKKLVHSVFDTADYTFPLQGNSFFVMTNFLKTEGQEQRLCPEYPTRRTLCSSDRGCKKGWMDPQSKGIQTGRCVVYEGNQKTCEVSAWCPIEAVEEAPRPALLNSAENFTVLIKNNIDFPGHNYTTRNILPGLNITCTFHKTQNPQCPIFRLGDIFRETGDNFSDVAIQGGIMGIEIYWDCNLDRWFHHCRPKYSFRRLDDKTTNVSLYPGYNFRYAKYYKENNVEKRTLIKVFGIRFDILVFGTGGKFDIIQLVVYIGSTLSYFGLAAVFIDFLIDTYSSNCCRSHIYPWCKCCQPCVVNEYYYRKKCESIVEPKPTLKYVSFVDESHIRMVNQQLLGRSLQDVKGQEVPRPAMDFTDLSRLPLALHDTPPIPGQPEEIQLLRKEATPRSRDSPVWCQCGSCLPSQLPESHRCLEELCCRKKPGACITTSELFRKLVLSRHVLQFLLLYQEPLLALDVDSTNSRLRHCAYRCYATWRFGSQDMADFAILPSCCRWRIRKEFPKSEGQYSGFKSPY
rat P2X7, sequence (Q64663 whole entry): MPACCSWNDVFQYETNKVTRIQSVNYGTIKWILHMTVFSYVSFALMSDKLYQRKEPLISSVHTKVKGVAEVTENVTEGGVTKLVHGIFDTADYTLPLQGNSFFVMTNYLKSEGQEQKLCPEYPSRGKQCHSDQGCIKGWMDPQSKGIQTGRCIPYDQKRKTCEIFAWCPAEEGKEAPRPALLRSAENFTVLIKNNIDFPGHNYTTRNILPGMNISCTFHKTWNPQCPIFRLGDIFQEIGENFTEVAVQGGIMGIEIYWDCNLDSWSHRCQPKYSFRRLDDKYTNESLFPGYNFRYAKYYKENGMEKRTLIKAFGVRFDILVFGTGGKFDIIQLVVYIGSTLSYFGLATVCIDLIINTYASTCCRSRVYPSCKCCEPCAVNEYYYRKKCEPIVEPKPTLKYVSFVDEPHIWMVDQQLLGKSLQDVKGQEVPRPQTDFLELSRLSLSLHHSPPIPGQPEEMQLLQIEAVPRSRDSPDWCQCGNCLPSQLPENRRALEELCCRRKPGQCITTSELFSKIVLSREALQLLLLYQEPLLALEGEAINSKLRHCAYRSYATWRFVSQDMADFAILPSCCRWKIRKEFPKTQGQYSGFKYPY

Compound: Cc1nc(-n2nnc3c2CCN(C(=O)c2cccc(C(F)(F)F)c2Cl)C3C)ncc1F (single isomer, unassigned) [Example 306, (S*)-(2-chloro-3-(trifluoromethyl)phenyl)(1-(5-fluoro-4-methylpyrimidin-2-yl)-4-methyl-6,7-dihydro-1H-[1,2,3]triazolo[4,5-c]pyridin-5(4H)-yl)methanone]
PBMC 10 μM (% control) (human P2X7; [1]): 2.5 % control
PBMC 10 μM (% control) (human P2X7; test compound 10 μM, LPS 30 ng/ml + 0.5 mM Bz-ATP): 2.5 % control
IC50 (rat P2X7; 250 μM BzATP, Calcium-4 dye): 5.98 µM
IC50 (rat P2X7; [2]): 5.98 µM

Compound: Cc1ccnc(-n2nnc3c2CCN(C(=O)c2ccnc(C(F)(F)F)c2F)[C@@H]3C)c1 (single isomer, unassigned) [Example 356, (R*)-(3-fluoro-2-(trifluoromethyl)pyridin-4-yl)(4-methyl-1-(4-methylpyridin-2-yl)-6,7-dihydro-1H-[1,2,3]triazolo[4,5-c]pyridin-5(4H)-yl)methanone]
PBMC 10 μM (% control) (human P2X7; [1]): −5.9 % control
IC50 (rat P2X7; [2]): 0.12 µM

Compound: Cc1ccnc(-n2nnc3c2CCN(C(=O)c2ccnc(C(F)(F)F)c2F)[C@H]3C)c1 (single isomer, unassigned) [Example 357, (S*)-(3-fluoro-2-(trifluoromethyl)pyridin-4-yl)(4-methyl-1-(4-methylpyridin-2-yl)-6,7-dihydro-1H-[1,2,3]triazolo[4,5-c]pyridin-5(4H)-yl)methanone]
PBMC 10 μM (% control) (human P2X7; [1]): 42.4 % control
IC50 (rat P2X7; [2]): 16.2 µM

Compound: Cc1cc(-n2nnc3c2CCN(C(=O)c2cccc(C(F)(F)F)c2Cl)[C@@H]3C)ncc1F (single isomer, unassigned) [Example 382, (R*)-(2-chloro-3-(trifluoromethyl)phenyl)(1-(5-fluoro-4-methylpyridin-2-yl)-4-methyl-6,7-dihydro-1H-[1,2,3]triazolo[4,5-c]pyridin-5(4H)-yl)methanone]
PBMC 10 μM (% control) (human P2X7; [1]): −2.7 % control
IC50 (rat P2X7; [2]): 0.0566 µM

Compound: Cc1cccc(-n2nnc3c2CCN(C(=O)c2cccc(C(F)(F)F)c2F)[C@H]3C)n1 (single isomer, unassigned) [Example 387, (S*)-(2-fluoro-3-(trifluoromethyl)phenyl)(4-methyl-1-(6-methylpyridin-2-yl)-6,7-dihydro-1H-[1,2,3]triazolo[4,5-c]pyridin-5(4H)-yl)methanone]
PBMC 10 μM (% control) (human P2X7; [1]): 8.4 % control
IC50 (rat P2X7; [2]): 0.161 µM

Compound: CC1c2ncn(-c3cnccn3)c2CCN1C(=O)c1cccc(C(F)(F)F)c1F (centres unmarked) [Example 14, (2-Fluoro-3-(trifluoromethyl)phenyl)(4-methyl-1-(pyrazin-2-yl)-6,7-dihydro-1H-imidazo[4,5-c]pyridin-5(4H)-yl)methanone]
IC50 (rat P2X7; [2]): 0.122 µM

Compound: CC1c2ncn(-c3ncccn3)c2CCN1C(=O)c1cccc(C(F)(F)F)c1Cl (centres unmarked) [Example 23, (2-Chloro-3-(trifluoromethyl)phenyl)(4-methyl-1-(pyrimidin-2-yl)-6,7-dihydro-1H-imidazo[4,5-c]pyridin-5(4H)-yl)methanone]
PBMC 10 μM (% control) (human P2X7; [1]): 6.4 % control
IC50 (rat P2X7; [2]): 0.113 µM

Compound: CCOC(=O)C1c2ncn(-c3ccccc3)c2CCN1C(=O)c1cccc(Cl)c1Cl (centres unmarked) [Example 27, Ethyl 5-(2,3-dichlorobenzoyl)-1-phenyl-4,5,6,7-tetrahydro-1H-imidazo[4,5-c]pyridine-4-carboxylate]
IC50 (rat P2X7; [2]): 2.81 µM

Compound: CN(C)CC1c2ncn(-c3ccccn3)c2CCN1C(=O)c1cccc(C(F)(F)F)c1Cl (centres unmarked) [Example 31, 1-(5-{[2-Chloro-3-(trifluoromethyl)phenyl]carbonyl}-1-pyridin-2-yl-4,5,6,7-tetrahydro-1H-imidazo[4,5-c]pyridin-4-yl)-N,N-dimethylmethanamine]
IC50 (rat P2X7; [2]): 0.333 µM

Compound: O=C(c1cccc(C(F)(F)F)c1Cl)N1CCc2c(ncn2-c2ccccn2)C1CF (centres unmarked) [Example 32, (2-Chloro-3-(trifluoromethyl)phenyl)(4-(fluoromethyl)-1-(pyridin-2-yl)-6,7-dihydro-1H-imidazo[4,5-c]pyridin-5(4H)-yl)methanone]
PBMC 10 μM (% control) (human P2X7; [1]): 1.9 % control
IC50 (rat P2X7; [2]): 0.0475 µM

Compound: CN(C)C(=O)C1c2ncn(-c3ccccn3)c2CCN1C(=O)c1cccc(C(F)(F)F)c1Cl (centres unmarked) [Example 34, 5-{[2-Chloro-3-(trifluoromethyl)phenyl]carbonyl}-N,N-dimethyl-1-pyridin-2-yl-4,5,6,7-tetrahydro-1H-imidazo[4,5-c]pyridine-4-carboxamide]
IC50 (rat P2X7; [2]): 0.279 µM

Compound: O=C(c1cccc(C(F)(F)F)c1Cl)N1CCc2c(nnn2-c2ccccn2)C1 [Example 63, 5-{[2-Chloro-3-(trifluoromethyl)phenyl]carbonyl}-1-pyridin-2-yl-4,5,6,7-tetrahydro-1H-[1,2,3]triazolo[4,5-c]pyridine]
IC50 (rat P2X7; [2]): 1.45 µM

Compound: Cc1ccnc(-n2nnc3c2CCN(C(=O)c2ccnc(C(F)(F)F)c2Cl)C3C)c1 (centres unmarked) [Example 358, (3-chloro-2-(trifluoromethyl)pyridin-4-yl)(4-methyl-1-(4-methylpyridin-2-yl)-6,7-dihydro-1H-[1,2,3]triazolo[4,5-c]pyridin-5(4H)-yl)methanone]
PBMC 10 μM (% control) (human P2X7; [1]): −0.7 % control

Compound: Cc1cc(-n2nnc3c2CCN(C(=O)c2ccnc(C(F)(F)F)c2F)C3C)ncn1 (centres unmarked) [Example 397, (3-fluoro-2-(trifluoromethyl)pyridin-4-yl)(4-methyl-1-(6-methylpyrimidin-4-yl)-6,7-dihydro-1H-[1,2,3]triazolo[4,5-c]pyridin-5(4H)-yl)methanone]
PBMC 10 μM (% control) (human P2X7; [1]): 64.7 % control

Compound: Cc1nccc(-n2nnc3c2CCN(C(=O)c2ccnc(C(F)(F)F)c2F)C3C)n1 (centres unmarked) [Example 401, (3-fluoro-2-(trifluoromethyl)pyridin-4-yl)(4-methyl-1-(2-methylpyrimidin-4-yl)-6,7-dihydro-1H-[1,2,3]triazolo[4,5-c]pyridin-5(4H)-yl)methanone]
PBMC 10 μM (% control) (human P2X7; [1]): 82.0 % control

Compound: CCn1ccc(-n2nnc3c2C[C@H](C)N(C(=O)c2cccc(C(F)(F)F)c2Cl)C3)n1 [Example 404, (S)-(2-chloro-3-(trifluoromethyl)phenyl)(1-(1-ethyl-1H-pyrazol-3-yl)-6-methyl-6,7-dihydro-1H-[1,2,3]triazolo[4,5-c]pyridin-5(4H)-yl)methanone]
PBMC 10 μM (% control) (human P2X7; [3]): −3.1 % control

Compound: CCn1nccc1-n1nnc2c1C[C@H](C)N(C(=O)c1cccc(C(F)(F)F)c1Cl)C2 [Example 406, (S)-(2-chloro-3-(trifluoromethyl)phenyl)(1-(1-ethyl-1H-pyrazol-5-yl)-6-methyl-6,7-dihydro-1H-[1,2,3]triazolo[4,5-c]pyridin-5(4H)-yl)methanone]
PBMC 10 μM (% control) (human P2X7; [3]): −3.6 % control

Next, values leading:

PBMC 10 μM (% control) (human P2X7; [3]): 77.4 % control
Compound: CCn1nccc1-n1nnc2c1CCN(C(=O)c1cccc(C(F)(F)F)c1Cl)[C@H]2C [Example 407, (S)-(2-chloro-3-(trifluoromethyl)phenyl)(1-(1-ethyl-1H-pyrazol-5-yl)-4-methyl-6,7-dihydro-1H-[1,2,3]triazolo[4,5-c]pyridin-5(4H)-yl)methanone]

PBMC 10 μM (% control) (human P2X7; [3]): 53.6 % control
Compound: CCn1ccc(-n2nnc3c2C[C@H](C)N(C(=O)c2ccnc(C(F)(F)F)c2F)C3)n1 [Example 408, (S)-(1-(1-ethyl-1H-pyrazol-3-yl)-6-methyl-6,7-dihydro-1H-[1,2,3]triazolo[4,5-c]pyridin-5(4H)-yl)(3-fluoro-2-(trifluoromethyl)pyridin-4-yl)methanone]

PBMC 10 μM (% control) (human P2X7; [3]): −1.5 % control
Compound: CCn1ccc(-n2nnc3c2C[C@H](C)N(C(=O)c2ccnc(C(F)(F)F)c2Cl)C3)n1 [Example 410, (S)-(3-chloro-2-(trifluoromethyl)pyridin-4-yl)(1-(1-ethyl-1H-pyrazol-3-yl)-6-methyl-6,7-dihydro-1H-[1,2,3]triazolo[4,5-c]pyridin-5(4H)-yl)methanone]

PBMC 10 μM (% control) (human P2X7; [3]): 69.6 % control
Compound: CCn1ccc(-n2nnc3c2CCN(C(=O)c2ccnc(C(F)(F)F)c2Cl)[C@H]3C)n1 [Example 411, (S)-(3-chloro-2-(trifluoromethyl)pyridin-4-yl)(1-(1-ethyl-1H-pyrazol-3-yl)-4-methyl-6,7-dihydro-1H-[1,2,3]triazolo[4,5-c]pyridin-5(4H)-yl)methanone]

PBMC 10 μM (% control) (human P2X7; [3]): 68.5 % control
Compound: CC(C)n1ccc(-n2nnc3c2CCN(C(=O)c2cccc(C(F)(F)F)c2Cl)[C@H]3C)n1 [Example 413, (S)-(2-chloro-3-(trifluoromethyl)phenyl)(1-(1-isopropyl-1H-pyrazol-3-yl)-4-methyl-6,7-dihydro-1H-[1,2,3]triazolo[4,5-c]pyridin-5(4H)-yl)methanone]

PBMC 10 μM (% control) (human P2X7; [3]): 112.2 % control
Compound: CC(C)n1ccc(-n2nnc3c2CCN(C(=O)c2ccnc(C(F)(F)F)c2Cl)[C@H]3C)n1 [Example 417, (S)-(3-chloro-2-(trifluoromethyl)pyridin-4-yl)(1-(1-isopropyl-1H-pyrazol-3-yl)-4-methyl-6,7-dihydro-1H-[1,2,3]triazolo[4,5-c]pyridin-5(4H)-yl)methanone]

PBMC 10 μM (% control) (human P2X7; [3]): 97.6 % control
Compound: CC(C)n1ccc(-n2nnc3c2C[C@H](C)N(C(=O)c2ccnc(C(F)(F)F)c2F)C3)n1 [Example 418, (S)-(3-fluoro-2-(trifluoromethyl)pyridin-4-yl)(1-(1-isopropyl-1H-pyrazol-3-yl)-6-methyl-6,7-dihydro-1H-[1,2,3]triazolo[4,5-c]pyridin-5(4H)-yl)methanone]

PBMC 10 μM (% control) (human P2X7; [3]): 0.0 % control
Compound: C[C@H]1Cc2c(nnn2-c2ccsc2)CN1C(=O)c1cccc(C(F)(F)F)c1Cl [Example 420, (S)-(2-chloro-3-(trifluoromethyl)phenyl)(6-methyl-1-(thiophen-3-yl)-6,7-dihydro-1H-[1,2,3]triazolo[4,5-c]pyridin-5(4H)-yl)methanone]

PBMC 10 μM (% control) (human P2X7; [3]): 2.3 % control
Compound: C[C@H]1Cc2c(nnn2-c2ncc(O)cn2)CN1C(=O)c1ccnc(C(F)(F)F)c1F [Example 429, (S)-(3-fluoro-2-(trifluoromethyl)pyridin-4-yl)(1-(5-hydroxypyrimidin-2-yl)-6-methyl-6,7-dihydro-1H-[1,2,3]triazolo[4,5-c]pyridin-5(4H)-yl)methanone]
